Source: US9408393B2, “Bismuth-thiols as antiseptics for agricultural, industrial and other uses” (Microbion Corporation, priority 2010, dated 2016)

Assays:
[1] = system: S. aureus; experiment: Broth dilution MIC/MBC, BT-antibiotic combinations; assay type: cell-based, Staphylococcus aureus; conditions: Staphylococcus aureus, Tobramycin resistant strains table, S. aureus SA-29213
Protocol: Materials & Methods. Susceptibility studies were performed by broth dilution in 96-well tissue culture plates (Nalge Nunc International, Denmark) in accordance with NCCLS protocols (National Committee for Clinical Laboratory Standards. (1997). Methods for Dilution Antimicrobial Susceptibility Tests for Bacteria that Grow Aerobically: Approved Standard M7-A2 and Informational Supplement M100-S10. NCCLS, Wayne, Pa., USA).
Briefly, overnight bacterial cultures were used to prepare 0.5 McFarland standard suspensions, which were further diluted 1:50 (˜2×10^6 cfu/mL) in cation-adjusted Mueller-Hinton broth medium (BBL, Cockeysville, Md., USA). BTs (prepared as described above) and antibiotics were added at incremental concentrations, keeping the final volume constant at 0.2 mL. Cultures were incubated for 24 h at 37° C. and turbidity was assessed by absorption at 630 nm using an ELISA plate reader (Biotek Instruments, Winooski, Vt., USA) according to the manufacturer's recommendations. […] Viable bacterial counts (cfu/mL) were determined by standard plating on nutrient agar.
The checkerboard method was used to assess the activity of antimicrobial combinations. The fractional inhibitory concentration index (FICI) and the fractional bactericidal concentration index (FBCI) were calculated, according to Eliopoulos et al. (Eliopoulos and Moellering, (1996) Antimicrobial combinations. In Antibiotics in Laboratory Medicine (Lorian, V., Ed.), pp. 330-96, Williams and Wilkins, Baltimore, Md., USA). Synergy was defined as an FICI or FBCI index of […], no interaction at >0.5-4 and antagonism at >4 (Odds, F C (2003) Synergy, antagonism, and what the chequerboard puts between them. Journal of Antimicrobial Chemotherapy 52:1). Synergy was also defined conventionally as ≧4-fold decrease in antibiotic concentration.

[2] = system: B. cepacia (B. multivorans, B. cenocepacia); experiment: MIC and FIC index, tobramycin + BisEDT; assay type: cell-based, Burkholderia cepacia; conditions: 0.4 μg/ml BisEDT
[3] = system: Streptococcus pneumoniae (SP, PRSP); experiment: Single-point BisEDT-antibiotic combination FICI; conditions: PRSP 5348
[4] = system: Burkholderia cepacia; experiment: Single-point BisEDT-antibiotic combination FICI; assay type: cell-based; conditions: Bcep 1756
[5] = system: Staphylococcus aureus (SA, MRSA); experiment: Single-point BisEDT-antibiotic combination FICI; assay type: cell-based
[6] = system: Pseudomonas aeruginosa; experiment: Single-point BisEDT-antibiotic combination FICI; assay type: cell-based; conditions: PA 1380
[7] = system: Acinetobacter baumanii; experiment: Single-point BisEDT-antibiotic combination FICI; assay type: cell-based; conditions: Abau 2594
[8] = system: Enterococcus faecalis; experiment: Single-point BisEDT-antibiotic combination FICI; assay type: cell-based; conditions: E Fc 3121
[9] = system: Klebsiella pneumoniae; experiment: Single-point BisEDT-antibiotic combination FICI; assay type: cell-based; conditions: KP 1231
[10] = system: Bukholderia multivorans; experiment: Single-point BisEDT-antibiotic combination FICI; assay type: cell-based; conditions: Bmult 5665
[11] = system: Escherichia coli; experiment: Single-point BisEDT-antibiotic combination FICI; assay type: cell-based; conditions: EC 2232
[12] = system: resistant E. coli; experiment: MIC in Mueller-Hinton II broth, antibiotic + BisEDT; assay type: cell-based, Escherichia coli
Description: Chloramphenicol and ampicillin resistant Escherichia coli were made sensitive to these drugs by the addition of subMIC BisEDT (Table 24).
Tetracycline resistant Escherichia coli were made sensitive to doxycycline by the addition of subMIC BisEDT (Table 25).

[13] = tobramycin-resistant Burkholderia cepacia

For `NC[C@H]1O[C@H](O[C@H]2[C@H](O)[C@@H](O[C@H]3O[C@H](CO)[C@@H](O)[C@H](N)[C@H]3O)[C@H](N)C[C@@H]2N)[C@H](N)C[C@@H]1O` [Tobramycin], the MBC ([1]; read-out: NN MBC) was 2 µg/mL, the MIC ([1]; read-out: NN MIC) was 2 µg/mL and the “Isolates rendered tobramycin sensitive” value [2] was “seven of 10”. For the same molecule, the “Fold reduction of tobramycin MIC90” value [2, 13] was 10 fold, the “mean FIC” value [2, 13] was 0.48 and the “FICI, single-point BisEDT-antibiotic combination” value [3] was 0.57. For the same molecule, the “FICI, single-point BisEDT-antibiotic combination” value [4] was 0.91, the “FICI, single-point BisEDT-antibiotic combination” value ([5]; MRSA 773) was 0.78 and the “FICI, single-point BisEDT-antibiotic combination” value ([5]; SA 100) was 0.73. For the same molecule, the “FICI, single-point BisEDT-antibiotic combination” value [6] was 1.29, the “FICI, single-point BisEDT-antibiotic combination” value [7] was 1.12 and the “FICI, single-point BisEDT-antibiotic combination” value [8] was 0.47. For the same molecule, the “FICI, single-point BisEDT-antibiotic combination” value [9] was 0.87, the “FICI, single-point BisEDT-antibiotic combination” value [10] was 0.67 and the “FICI, single-point BisEDT-antibiotic combination” value [11] was 0.96.
In the case of `C[C@H]1c2cccc(O)c2C(=O)C2=C(O)[C@]3(O)C(=O)C(C(N)=O)=C(O)[C@@H](N(C)C)[C@@H]3[C@@H](O)[C@@H]21` [DOX, doxycycline], the “FIC, doxycycline + subMIC BisEDT” value ([12]; E. coli TET M and TET D strains) is reported as 0.5.
`CC1(C)S[C@@H]2[C@H](NC(=O)[C@H](N)c3ccccc3)C(=O)N2[C@H]1C(=O)O` [AM, ampicillin] showed an MIC ([12]; Escherichia coli, read-out: Drug + BE MIC, Chloramphenicol/Ampicillin resistant E. coli, BE 0.33 μg/ml) of 49 µg/mL.
